Laboratory results: PubChem BioAssay (NCI)
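Tested at 5 concentrations; 48 h exposure; 96-well plates; endpoints linearly interpolated, else capped at highest concentration. Definition used: TGI = concentration required for complete inhibition of growth.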

Assays:
Assay in all cases: NCI-60 cell line screen, 48 h
[1] = system: M19-MEL melanoma
[2] = system: RXF-631 renal
[3] = system: SNB-78 CNS
[4] = system: LXFL 529 NSCLC
[5] = system: DLD-1 colon
[6] = system: KM20L2 colon
[7] = system: DMS 273 small cell lung

COc1ccc(OC(C(=O)O)C(C)C)c2c1CCCC2=O (stereo not given)
TGI [1]: > 100 µM | TGI [2]: > 100 µM | TGI [3]: > 100 µM | TGI [4]: > 100 µM | TGI [5]: > 100 µM | TGI [6]: > 100 µM | TGI [7]: > 100 µM

Cc1ccc(S(=O)(=O)N=NC=C2c3ccccc3N(O)c3ccccc32)cc1
TGI [1]: 23.4 µM | TGI [2]: 10.2 µM | TGI [3]: 32.8 µM | TGI [4]: 2.41 µM | TGI [5]: 8.46 µM | TGI [6]: 12.4 µM | TGI [7]: 15.1 µM

O=C(C#Cc1ccccc1)N1c2ccccc2CC1c1c[nH]c2ccccc12 (stereo not given)
TGI [1]: 43.1 µM | TGI [2]: 27.7 µM | TGI [3]: 36.9 µM | TGI [4]: 27.7 µM | TGI [5]: 76.7 µM | TGI [6]: 67.5 µM | TGI [7]: 30 µM

C#CCNC(=O)ON1C(=O)CCC1=O
TGI [1]: > 100 µM | TGI [2]: > 100 µM | TGI [3]: > 100 µM | TGI [4]: > 100 µM | TGI [5]: > 100 µM | TGI [6]: > 100 µM | TGI [7]: > 100 µM

O=c1cccccc1NCCCCCCCNc1cccccc1=O
TGI [1]: 84.8 µM | TGI [2]: 35 µM | TGI [3]: > 100 µM | TGI [4]: > 100 µM | TGI [5]: > 100 µM | TGI [6]: > 100 µM | TGI [7]: > 100 µM
